Data as given in patent US12479841B2, “Anthelmintic compounds comprising azaindoles structure” (Intervet Inc., priority 2019, dated 2025).

How the values were obtained:
[1] = molecular target: Caenorhabditis elegans slo-1a (Caenorhabditis elegans, UniProt Q95V25)
Protocol: In Vitro Assay: Agonistic Activity at C. elegans Slo-1a
A CHO K1 cell line stably transfected with the Caenorhabditis elegans slo-1a (accession no Y51A2D.19a) was established. Cells were seeded in microtiter plates (black 384-well MTP, clear bottom) in a concentration of 10,000 cells/well in 25 μl medium and cultured for 20 to 24 hours at 37° C. and 5% CO2. The cell medium was removed, and the cells washed with Tyrode's solution. 25 μl of FMP-dye Blue-Tyrode's was added to each well and incubated at room temperature for 30 min.
(§1) For the membrane potential measurements, the prepared cell plate and substance plate were placed in the FLIPR Tetra (Molecular Devices). The baseline measurement of the fluorescence was stared for 20 sec (Exc. 510-545 nm, Emm. 565-625 nm). The cells were depolarized by addition of 25 μl of the diluted test compounds (final assay concentration of the KCl-Tyrode: 70 mM KCl, 2 mM CaCl2, 1 mM MgCl2, 0.8 mM NaH2PO4, 5 mM Glucose, 28 mM Hepes, pH 7.4, including the voltage sensitive dye). The complete measurement takes 150 s.
(§2) EC50 values were determined in triplicate utilizing compound dilution series. The data were determined at least in two independent tests. The data were proceeded by using the ActivityBase XE Runner software (IDBS) for curve fitting and calculation of the half-maximal effective concentration.

[2] = molecular target: human Maxi K channel (BK channel), KCNMA1 (KCa1.1) and beta1 (KCNMB1) subunits (Homo sapiens, UniProt Q12791)
Protocol: In Vitro Assay: Agonistic Activity at the Human Maxi K Channel (BK Channel)
A CHO K1 cell line was stably transfected with the KCNMA1 (KCa1.1, U11058) and beta1 (KCNMB1) subunits of the human Maxi K channel (Ponte et al, Molecular Pharmacology 2012, 81(4), 567-577).
Cells were seeded in microtiter plates (black 384-well MTP, clear bottom) in a concentration of 10,000 cells/well in 25 μl medium and cultured for 20 to 24 hours at 37° C. and 5% CO2. The cell medium was removed, and the cells washed with Tyrode's solution. 25 μl of FMP-dye Blue-Tyrode's was added to each well and incubated at room temperature for 30 min.
as §1, §2

A. viteae microfilaria = experiment: In vitro assay: Acanthocheilonema viteae L1 (microfilaria) motility; conditions: 72 h, read-out: EC50 value, Acanthocheilonema viteae L1, approximately 500 microfilaria, 3 days incubation, reduction in motility vs DMSO, duplicates
Protocol: In Vitro Assay: Acanthocheilonema viteae L1
Approximately 500 A. viteae microfilaria were added to a microtiter plate containing a nutrient medium and the test compound in DMSO at varying concentrations. After incubation for 3 days, activity was evaluated as reduction in motility as compared to DMSO as negative control. Compounds were tested in duplicates. Based on the concentration response curves EC50 values were calculated.

larvae L4 of D. immitis = experiment: In vitro assay: Dirofilaria immitis L4 motility; format: cell-based; conditions: 72 h, read-out: EC50 value, Dirofilaria immitis L4, 10 L4 larvae, 3 days incubation, reduction in motility vs DMSO, duplicates
[3] = tested on: Oesophagostomum dentatum (nodular worm of swine), larval stage 3; experiment: In vitro assay: Oesophagostomum dentatum L3 larvae, minimum effective concentration; conditions: in Sus scrofa, read-out: MEC (minimum effective concentration) against Oesophagostomum dentatum L3, L3 larvae, 20 per well, microscopic examination, concentration at which at least one larva shows mortality, change in motility or development
Description: (§3) In Vitro Assay: Ascaridia galli and Oesophagostomum dentatum
(§4) Ascaridia galli (intestinal roundworm of chicken), larval stage 3 (“L3”); and Oesophagostomum dentatum (nodular worm of swine), larval stages 3 and 4 (respectively “L3” and “L4”) where suspended in a nutrient medium and distributed to 96 well plates with 20 larvae per well. The wells were spiked with DMSO solutions of the compounds with declining concentration.

D. immitis microfilaria = experiment: In vitro assay: Dirofilaria immitis L1 (microfilaria) motility; format: cell-based; conditions: 72 h, read-out: EC50 value, Dirofilaria immitis L1, approximately 500 microfilaria, 3 days incubation, reduction in motility vs DMSO, duplicates
[4] = tested on: Oesophagostomum dentatum (nodular worm of swine), larval stage 4; experiment: In vitro assay: Oesophagostomum dentatum L4 larvae, minimum effective concentration; conditions: in Sus scrofa, read-out: MEC (minimum effective concentration) against Oesophagostomum dentatum L4, L4 larvae, 20 per well, microscopic examination, concentration at which at least one larva shows mortality, change in motility or development
Description: as §3, §4

Sequence of human Maxi K channel (BK channel), KCNMA1 (KCa1.1) and beta1 (KCNMB1) subunits (Q12791 1-1178 isoform Q12791-5): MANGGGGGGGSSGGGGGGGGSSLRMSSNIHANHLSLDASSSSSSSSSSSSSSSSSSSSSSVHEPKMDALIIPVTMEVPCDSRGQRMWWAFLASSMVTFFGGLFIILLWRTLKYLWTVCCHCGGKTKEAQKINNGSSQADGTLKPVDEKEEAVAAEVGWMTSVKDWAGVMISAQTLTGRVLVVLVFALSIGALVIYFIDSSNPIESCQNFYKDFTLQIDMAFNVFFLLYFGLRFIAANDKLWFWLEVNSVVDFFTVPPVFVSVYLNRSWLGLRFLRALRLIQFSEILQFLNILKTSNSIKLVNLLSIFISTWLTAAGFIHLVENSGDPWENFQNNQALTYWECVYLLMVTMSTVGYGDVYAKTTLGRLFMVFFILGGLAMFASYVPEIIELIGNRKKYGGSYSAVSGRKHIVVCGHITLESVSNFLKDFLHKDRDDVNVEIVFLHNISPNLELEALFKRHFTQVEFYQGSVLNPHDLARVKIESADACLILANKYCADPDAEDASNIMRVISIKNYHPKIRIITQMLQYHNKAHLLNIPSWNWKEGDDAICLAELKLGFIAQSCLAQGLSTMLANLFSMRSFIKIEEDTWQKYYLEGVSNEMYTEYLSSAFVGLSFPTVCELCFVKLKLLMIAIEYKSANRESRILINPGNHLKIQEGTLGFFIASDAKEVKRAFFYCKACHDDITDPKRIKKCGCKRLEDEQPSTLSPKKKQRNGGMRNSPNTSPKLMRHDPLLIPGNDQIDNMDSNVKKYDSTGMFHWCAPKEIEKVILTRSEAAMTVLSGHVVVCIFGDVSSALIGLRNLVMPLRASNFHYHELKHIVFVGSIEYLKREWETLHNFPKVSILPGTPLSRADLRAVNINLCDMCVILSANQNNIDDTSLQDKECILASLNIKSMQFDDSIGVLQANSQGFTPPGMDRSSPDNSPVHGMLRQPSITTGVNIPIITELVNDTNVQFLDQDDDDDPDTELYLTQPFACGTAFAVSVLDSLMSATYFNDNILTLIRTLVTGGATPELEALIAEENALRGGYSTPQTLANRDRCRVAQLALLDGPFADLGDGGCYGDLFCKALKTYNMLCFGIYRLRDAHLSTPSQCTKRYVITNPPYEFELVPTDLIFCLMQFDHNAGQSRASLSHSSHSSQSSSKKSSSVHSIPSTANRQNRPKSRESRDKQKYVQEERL
Sequence of human Maxi K channel (BK channel), KCNMA1 (KCa1.1) and beta1 (KCNMB1) subunits (Q16558 whole entry partner): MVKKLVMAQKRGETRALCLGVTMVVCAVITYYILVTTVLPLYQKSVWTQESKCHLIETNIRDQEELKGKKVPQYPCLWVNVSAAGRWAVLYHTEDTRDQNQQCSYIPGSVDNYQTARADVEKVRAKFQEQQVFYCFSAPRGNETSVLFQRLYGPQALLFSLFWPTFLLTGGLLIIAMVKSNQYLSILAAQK
Sequence of Caenorhabditis elegans slo-1a (Q95V25 whole entry): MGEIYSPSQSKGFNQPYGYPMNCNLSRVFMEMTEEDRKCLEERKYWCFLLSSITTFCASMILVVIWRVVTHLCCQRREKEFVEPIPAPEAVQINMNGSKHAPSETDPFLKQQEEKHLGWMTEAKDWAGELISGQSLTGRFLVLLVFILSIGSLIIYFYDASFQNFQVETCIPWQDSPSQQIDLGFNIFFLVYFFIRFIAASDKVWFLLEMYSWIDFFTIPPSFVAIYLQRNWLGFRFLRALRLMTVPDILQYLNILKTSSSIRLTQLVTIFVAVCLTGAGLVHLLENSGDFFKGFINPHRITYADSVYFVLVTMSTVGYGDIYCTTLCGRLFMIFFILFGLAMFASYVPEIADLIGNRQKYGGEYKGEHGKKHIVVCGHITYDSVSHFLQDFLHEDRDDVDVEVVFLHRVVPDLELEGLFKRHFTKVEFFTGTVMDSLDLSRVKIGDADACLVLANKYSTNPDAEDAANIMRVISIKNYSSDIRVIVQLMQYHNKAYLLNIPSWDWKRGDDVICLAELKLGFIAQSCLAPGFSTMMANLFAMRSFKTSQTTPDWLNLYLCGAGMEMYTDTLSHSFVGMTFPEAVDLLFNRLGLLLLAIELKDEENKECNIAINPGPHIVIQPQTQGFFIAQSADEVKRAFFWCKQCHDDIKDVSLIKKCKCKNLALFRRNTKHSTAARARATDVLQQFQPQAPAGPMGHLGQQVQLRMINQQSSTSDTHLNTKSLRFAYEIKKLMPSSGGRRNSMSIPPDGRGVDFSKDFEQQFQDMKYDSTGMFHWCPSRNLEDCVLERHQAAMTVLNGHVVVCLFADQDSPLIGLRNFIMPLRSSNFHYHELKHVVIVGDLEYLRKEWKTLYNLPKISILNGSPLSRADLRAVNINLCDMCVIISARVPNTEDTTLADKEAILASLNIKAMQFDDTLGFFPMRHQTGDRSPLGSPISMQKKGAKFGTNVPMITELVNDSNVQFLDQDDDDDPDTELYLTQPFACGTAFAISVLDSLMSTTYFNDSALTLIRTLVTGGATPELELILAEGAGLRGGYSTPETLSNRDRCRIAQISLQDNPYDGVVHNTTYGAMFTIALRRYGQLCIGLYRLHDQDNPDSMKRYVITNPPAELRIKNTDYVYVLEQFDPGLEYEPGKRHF

| SMILES | EC50 [1] [µM] | EC50 [2] [µM] | further results |
| --- | --- | --- | --- |
| CN(C)c1c(C(=O)NC2CCOc3ccccc32)cnc2c1ccn2-c1cccc(Cl)c1Cl (stereo not drawn) [Compound 6] | < 1 | > 30 | – |
| CN(C)c1c(C(=O)Nc2cccc3ccccc23)cnc2c1ccn2-c1cc(Cl)cc(Cl)c1 [Compound 41] | – | > 30 | EC50 (A. viteae microfilaria): < 10 µM |
| CN(C)c1c(C(=O)NC2CC(C)(C)Oc3ccccc32)cnc2c1ccn2-c1cccc(Cl)c1Cl (stereo not drawn) [Compound 19] | < 10 | > 30 | – |
| COc1cccc(-n2ccc3c(N(C)C)c(C(=O)N[C@H]4CCOc5ccccc54)cnc32)c1 [Compound 31] | < 1 | > 30 | – |
| O=C(NC1CCOc2ccccc21)c1cnc2c(ccn2-c2cccc(Cl)c2Cl)c1N1CCOCC1 (stereo not drawn) [Compound 8] | < 1 | > 30 | EC50 (larvae L4 of D. immitis): < 1 µM |
| CC1(C)CC(NC(=O)c2cnc3c(ccn3-c3cccc(Cl)c3Cl)c2N2CCOCC2)c2ccccc2O1 (stereo not drawn) [Compound 40] | < 10 | > 30 | EC50 (A. viteae microfilaria): < 10 µM; minimal effective concentration [3]: ≤ 50 µM |
| COc1c(C(=O)Nc2cccc3ccccc23)cnc2c1ccn2-c1cc(Cl)cc(Cl)c1 [Compound 50] | – | > 30 | EC50 (D. immitis microfilaria): < 10 µM |
| CCOc1c(C(=O)N[C@H]2CCOc3ccccc32)cnc2c1ccn2-c1cc(Cl)cc(Cl)c1 [Compound 43] | – | > 30 | EC50 (D. immitis microfilaria): < 10 µM; minimal effective concentration [4]: ≤ 50 µM |
| Cc1cccc(-n2ccc3c(N(C)C)c(C(=O)N[C@H]4CCOc5ccccc54)cnc32)c1C [Compound 29] | < 1 | > 30 | – |
| CN(C)c1c(C(=O)NC2CC(C)(C)Oc3ccccc32)cnc2c1ccn2-c1cc(Cl)cc(Cl)c1 (stereo not drawn) [Compound 38] | < 10 | 10 to 30 | EC50 (A. viteae microfilaria): < 10 µM; minimal effective concentration [3]: ≤ 50 µM |
| CN(C)c1c(C(=O)N[C@H]2CCOc3ccccc32)cnc2c1ccn2-c1cccc(Cl)c1Cl [Compound 13] | < 1 | > 30 | – |
| CN(C)c1c(C(=O)NCc2ccccc2)cnc2c1ccn2-c1cc(Cl)cc(Cl)c1 [Compound 9] | – | > 30 | – |
| CN(C)c1c(C(=O)N[C@@H]2CCOc3ccccc32)cnc2c1ccn2-c1cccc(Cl)c1Cl [Compound 18] | < 10 | > 30 | EC50 (A. viteae microfilaria): < 10 µM; minimal effective concentration [4]: ≤ 50 µM |
| COc1c(C(=O)N[C@H]2CCc3ccccc32)cnc2c1ccn2-c1cc(Cl)cc(Cl)c1 [Compound 49] | – | > 30 | – |
| CCOc1c(C(=O)Nc2cccc3ccccc23)cnc2c1ccn2-c1cc(Cl)cc(Cl)c1 [Compound 46] | – | > 30 | – |
| O=C(N[C@H]1CCOc2ccccc21)c1cnc2c(ccn2-c2cc(Cl)cc(Cl)c2)c1N1CCOCC1 [Compound 33] | – | > 30 | – |
| CN(C)c1c(C(=O)N[C@H]2CCCc3ccccc32)cnc2c1ccn2-c1cc(Cl)cc(Cl)c1 [Compound 34] | < 10 | > 30 | – |
| CN(C)c1cccc(-n2ccc3c(N(C)C)c(C(=O)N[C@H]4CCOc5ccccc54)cnc32)c1 [Compound 30] | < 1 | > 30 | minimal effective concentration [3]: ≤ 50 µM |
| O=C(N[C@H]1CCc2ccccc21)c1cnc2c(ccn2-c2cc(Cl)cc(Cl)c2)c1N1CCOCC1 [Compound 37] | – | > 30 | EC50 (D. immitis microfilaria): < 10 µM; EC50 (A. viteae microfilaria): < 10 µM; minimal effective concentration [3]: ≤ 50 µM; minimal effective concentration [4]: ≤ 50 µM |
| CCOc1c(C(=O)N[C@H]2CCc3ccccc32)cnc2c1ccn2-c1cc(Cl)cc(Cl)c1 [Compound 44] | – | > 30 | – |
| CN(C)c1c(C(=O)N[C@H]2CCCc3ccccc32)cnc2c1ccn2-c1cccc(Cl)c1Cl [Compound 14, (S)-1-(2,3-dichlorophenyl)-4-(dimethylamino)-N-(1,2,3,4-tetrahydronaphthalen-1-yl)-1H-pyrrolo[2,3-b]pyridine-5-carboxamide] | < 1 | 10 to 30 | – |
| O=C(N[C@H]1CCOc2ccccc21)c1cnc2c(ccn2-c2cccc(Cl)c2Cl)c1N1CCOCC1 [Compound 21] | < 1 | > 30 | – |
| CN(C)c1c(C(=O)N[C@H]2CCOc3ccccc32)cnc2c1ccn2-c1cccc(F)c1F [Compound 25] | < 1 | > 30 | – |
| CN(C)c1c(C(=O)Nc2cccc3ccccc23)cnc2c1ccn2-c1cccc(Cl)c1Cl [Compound 20] | – | > 30 | EC50 (A. viteae microfilaria): < 10 µM; minimal effective concentration [3]: ≤ 50 µM |

| SMILES | EC50 [1] [µM] | EC50 [2] [µM] | further results |
| --- | --- | --- | --- |
| CN(C)c1c(C(=O)NCc2ccccc2)cnc2c1ccn2-c1cccc(Cl)c1Cl [Compound 10] | < 1 | > 30 | – |
| CN(C)c1c(C(=O)NC2CCOc3ccccc32)cnc2c1ccn2-c1cc(Cl)cc(Cl)c1 (stereo not drawn) [Compound 5] | < 1 | > 30 | minimal effective concentration [3]: ≤ 50 µM |
| O=C(N[C@H]1CCOc2ccccc21)c1cnc2c(ccn2-c2cc(Cl)cc(Cl)c2)c1O [Compound 51] | – | > 30 | EC50 (D. immitis microfilaria): < 10 µM; EC50 (A. viteae microfilaria): < 10 µM |
| O=C(Nc1cccc2ccccc12)c1cnc2c(ccn2-c2cc(Cl)cc(Cl)c2)c1N1CCOCC1 [Compound 42] | – | > 30 | – |
| CCOc1c(C(=O)N[C@H]2CCCc3ccccc32)cnc2c1ccn2-c1cc(Cl)cc(Cl)c1 [Compound 45] | – | > 30 | – |
| CN(C)c1c(C(=O)N[C@H]2CCOc3ccccc32)cnc2c1ccn2-c1cc(Cl)cc(Cl)c1 [Compound 32] | – | > 30 | – |
| O=C(N[C@H]1CCCc2ccccc21)c1cnc2c(ccn2-c2cc(Cl)cc(Cl)c2)c1N1CCOCC1 [Compound 35] | – | > 30 | – |
| O=C(NC1CCc2ccccc21)c1cnc2c(ccn2-c2cccc(Cl)c2Cl)c1N1CCOCC1 (stereo not drawn) [Compound 4] | < 1 | > 30 | – |
| O=C(N[C@H]1CCc2ccccc21)c1cnc2c(ccn2-c2cccc(Cl)c2Cl)c1N1CCOCC1 [Compound 22] | – | > 30 | – |
| COc1c(C(=O)N[C@H]2CCCc3ccccc32)cnc2c1ccn2-c1cc(Cl)cc(Cl)c1 [Compound 48] | – | > 30 | EC50 (A. viteae microfilaria): < 10 µM; minimal effective concentration [3]: ≤ 50 µM |
| O=C(NCc1ccccc1)c1cnc2c(ccn2-c2cccc(Cl)c2Cl)c1N1CCOCC1 [Compound 12] | – | > 30 | – |
| CN(C)c1c(C(=O)N[C@H]2CCc3ccccc32)cnc2c1ccn2-c1cccc(Cl)c1Cl [Compound 16] | < 1 | > 30 | – |
| CN(C)c1c(C(=O)NC2CCc3ccccc32)cnc2c1ccn2-c1cc(Cl)cc(Cl)c1 (stereo not drawn) [Compound 1, 1-(3,5-dichlorophenyl)-N-(2,3-dihydro-1H-inden-1-yl)-4-(dimethylamino)-1H-pyrrolo[2,3-b]pyridine-5-carboxamide] | < 1 | > 30 | – |
| CN(C)c1c(C(=O)N[C@@H]2CCc3ccccc32)cnc2c1ccn2-c1cccc(Cl)c1Cl [Compound 15] | – | > 30 | EC50 (D. immitis microfilaria): < 10 µM |
| CC1(C)CC(NC(=O)c2cnc3c(ccn3-c3cc(Cl)cc(Cl)c3)c2N2CCOCC2)c2ccccc2O1 (stereo not drawn) [Compound 39] | – | > 30 | EC50 (A. viteae microfilaria): < 10 µM; minimal effective concentration [3]: ≤ 50 µM; minimal effective concentration [4]: ≤ 50 µM |
| COc1c(C(=O)N[C@H]2CCOc3ccccc32)cnc2c1ccn2-c1cc(Cl)cc(Cl)c1 [Compound 47] | – | > 30 | – |
| O=C(NCc1ccccc1)c1cnc2c(ccn2-c2cc(Cl)cc(Cl)c2)c1N1CCOCC1 [Compound 11] | – | > 30 | minimal effective concentration [3]: ≤ 50 µM |
| O=C(NC1CCOc2ccccc21)c1cnc2c(ccn2-c2cc(Cl)cc(Cl)c2)c1N1CCOCC1 (stereo not drawn) [Compound 7] | – | > 30 | – |
| CN(C)c1c(C(=O)NC2CCc3ccccc32)cnc2c1ccn2-c1cccc(Cl)c1Cl (stereo not drawn) [Compound 2] | < 1 | > 30 | – |
| O=C(N[C@H]1CCCc2ccccc21)c1cnc2c(ccn2-c2cccc(Cl)c2Cl)c1N1CCOCC1 [Compound 17] | < 1 | 10 to 30 | – |
| O=C(NC1CCc2ccccc21)c1cnc2c(ccn2-c2cc(Cl)cc(Cl)c2)c1N1CCOCC1 (stereo not drawn) [Compound 3] | – | > 30 | – |
| O=C(Nc1cccc2ccccc12)c1cnc2c(ccn2-c2cccc(Cl)c2Cl)c1N1CCOCC1 [Compound 23] | – | > 30 | minimal effective concentration [3]: ≤ 50 µM; minimal effective concentration [4]: ≤ 50 µM |
| CN(C)c1c(C(=O)N[C@H]2CCOc3ccccc32)cnc2c1ccn2-c1cccc(C(F)(F)F)c1 [Compound 28] | < 1 | > 30 | – |
